{
  "source": "paper PMC6857051",
  "about": "“Proliferative regulation of alveolar epithelial type 2 progenitor cells by human Scnn1d gene” (Theranostics, 2019)",
  "key": {"δ802αβγ-ENaC": {"molecular_target": "T1, δ802αβγ-ENaC (Homo sapiens, UniProt P51168+P51170)", "T1 construct": "We characterized full-length human δ802-ENaC expressed in both Xenopus oocytes and humanized transgenic mice; expressed in transfected cells; host or cells: Xenopus laevis oocytes injected with cRNA (pGEM HE vector)", "T1 sequence (P51168 1-640)": "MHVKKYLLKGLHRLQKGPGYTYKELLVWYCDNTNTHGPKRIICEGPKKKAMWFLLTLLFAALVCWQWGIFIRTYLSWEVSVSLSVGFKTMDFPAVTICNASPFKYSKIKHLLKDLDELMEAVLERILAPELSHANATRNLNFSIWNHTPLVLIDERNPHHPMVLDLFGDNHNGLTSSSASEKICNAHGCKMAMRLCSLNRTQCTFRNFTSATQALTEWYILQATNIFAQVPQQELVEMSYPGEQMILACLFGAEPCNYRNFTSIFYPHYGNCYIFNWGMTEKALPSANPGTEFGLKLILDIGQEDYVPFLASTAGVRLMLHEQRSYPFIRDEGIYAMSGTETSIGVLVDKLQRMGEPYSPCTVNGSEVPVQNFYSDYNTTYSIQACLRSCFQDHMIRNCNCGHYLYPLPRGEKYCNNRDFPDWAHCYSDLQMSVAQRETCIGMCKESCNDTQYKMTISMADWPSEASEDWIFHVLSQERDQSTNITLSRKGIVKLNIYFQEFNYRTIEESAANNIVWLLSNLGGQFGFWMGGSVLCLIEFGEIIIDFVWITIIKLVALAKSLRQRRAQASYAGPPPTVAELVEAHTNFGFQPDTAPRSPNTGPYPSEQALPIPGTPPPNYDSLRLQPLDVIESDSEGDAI", "T1 sequence (P51170 1-649)": "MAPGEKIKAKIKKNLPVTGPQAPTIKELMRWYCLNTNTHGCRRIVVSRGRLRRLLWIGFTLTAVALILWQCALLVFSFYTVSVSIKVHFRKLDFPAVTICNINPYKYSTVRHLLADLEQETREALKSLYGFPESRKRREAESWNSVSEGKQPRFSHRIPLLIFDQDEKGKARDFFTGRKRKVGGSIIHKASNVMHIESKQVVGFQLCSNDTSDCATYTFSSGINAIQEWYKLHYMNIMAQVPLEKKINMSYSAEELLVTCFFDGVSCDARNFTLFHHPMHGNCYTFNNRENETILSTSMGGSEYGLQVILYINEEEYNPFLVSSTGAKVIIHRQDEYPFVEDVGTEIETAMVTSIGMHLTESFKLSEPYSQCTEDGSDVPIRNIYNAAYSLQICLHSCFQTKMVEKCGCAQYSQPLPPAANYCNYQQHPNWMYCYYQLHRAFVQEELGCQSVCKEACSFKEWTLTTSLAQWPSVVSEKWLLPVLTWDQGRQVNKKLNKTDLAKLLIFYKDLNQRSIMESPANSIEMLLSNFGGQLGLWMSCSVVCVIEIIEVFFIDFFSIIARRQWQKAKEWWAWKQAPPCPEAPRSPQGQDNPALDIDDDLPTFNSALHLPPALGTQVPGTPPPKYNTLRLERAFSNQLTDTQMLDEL", "assay": "Two-electrode voltage clamp of δ802αβγ-ENaC expressed in Xenopus oocytes", "format": "cell-based", "details": "oocytes pre-treated, currents at -100 mV, n=5, Figure 3D", "experimental": "(§1) Cloning, in vitro transcription, and heterologous expression of δ802 ENaC and two-electrode voltage clamping assay. δ802 and other ENaC subunits were generated in human ENaC cDNAs cloned into a pGEM HE vector [4], [76]. cRNAs of human α, β, and γ ENaC were prepared as described previously. The stoichiometry of native ENaC complexes is unclear to date. Based on the studies in the last decade, several models have been proposed for αβγ ENaC channels: 1α1β1γ, 2α1β1γ, 3α3β3γ. Based on the EM structure of human αβγ ENaC [35], the currently acceptable model of human αβγ ENaC complexes is heterotrimeric (1α1β1γ). Thus we microinjected δ802:β:γ in a 1:1:1 subunit ratio. Oocytes were surgically removed from appropriately anesthetized adult female Xenopus laevis (Xenopus Express). Briefly, the ovarian tissue was removed from the frog under anesthesia by tricaine-S (Western Chemicals) through a small incision in the lower abdomen. Ovarian lobes were removed and digested in OR-2 calcium-free medium (in mM: 82.5 NaCl, 2.5 KCl, 1.0 MgCl2, 1.0 Na2HPO4, and 10.0 HEPES, pH 7.5) with the addition of 2 mg/ml collagenase (Roche, Indianapolis). Defolliculated oocytes were injected with ENaC cRNAs into the cytosol (25 ng per oocyte in 50 nl of RNase-free water) and incubated in regular OR-2 medium at 18°C. The two-electrode voltage-clamp technique was used to record whole-cell currents 48 h post injection. Oocytes were impaled with two electrodes filled with 3M KCl, having resistance of 0.5 - 2 MΩ. A TEV-200A voltage-clamp amplifier (Dagan) was used to clamp oocytes with concomitant recording of currents. Two reference electrodes were connected to the bath. The continuously perfused bathing solution was ND-96 medium (in mM: 96.0 NaCl, 1.0 MgCl2, 1.8 CaCl2, 2.5 KCl, and 5.0 HEPES, pH 7.5). Whole-cell currents were recorded as previously reported. Experiments were controlled by pCLAMP 10.7 software (Molecular Devices), and currents at -40 mV, -100 mV, and +80 mV were continuously monitored with data recorded at intervals of 10 sec. Data were sampled at the rate of 200 Hz and filtered at 50 Hz."}, "human αβγ-ENaC": {"molecular_target": "T2, human αβγ-ENaC (Homo sapiens, UniProt P37088+P51168+P51170)", "T2 construct": "expressed in transfected cells; host or cells: Xenopus laevis oocytes injected with cRNA (pGEM HE vector)", "T2 sequence (P37088 1-669)": "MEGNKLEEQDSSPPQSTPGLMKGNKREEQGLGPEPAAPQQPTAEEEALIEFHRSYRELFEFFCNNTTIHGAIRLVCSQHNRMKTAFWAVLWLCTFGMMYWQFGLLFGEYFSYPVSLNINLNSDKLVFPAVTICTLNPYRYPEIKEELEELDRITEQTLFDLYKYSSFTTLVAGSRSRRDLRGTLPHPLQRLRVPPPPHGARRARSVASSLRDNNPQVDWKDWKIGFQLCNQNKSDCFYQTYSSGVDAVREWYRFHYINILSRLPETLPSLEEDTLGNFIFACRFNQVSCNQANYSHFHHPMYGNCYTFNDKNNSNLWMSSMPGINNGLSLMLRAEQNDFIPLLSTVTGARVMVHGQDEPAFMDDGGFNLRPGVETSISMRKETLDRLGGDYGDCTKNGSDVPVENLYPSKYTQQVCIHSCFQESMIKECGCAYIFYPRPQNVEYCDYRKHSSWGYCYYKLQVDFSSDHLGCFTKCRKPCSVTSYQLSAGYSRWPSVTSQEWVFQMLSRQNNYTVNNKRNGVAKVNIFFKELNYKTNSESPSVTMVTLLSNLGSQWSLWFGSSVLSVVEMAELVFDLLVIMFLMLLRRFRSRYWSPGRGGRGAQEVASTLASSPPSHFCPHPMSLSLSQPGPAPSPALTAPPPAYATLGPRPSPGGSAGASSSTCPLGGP", "T2 sequence (P51168 1-640)": "T1 sequence (P51168 1-640)", "T2 sequence (P51170 1-649)": "T1 sequence (P51170 1-649)", "assay": "Two-electrode voltage clamp of αβγ-ENaC expressed in Xenopus oocytes", "format": "cell-based", "details": "oocytes pre-treated, currents at -100 mV, n=5, Figure 3D", "experimental": "as §1"}, "[1]": {"tested_on": "δ802- and γ-ENaC subunits", "assay": "Immunoblot of cleavage of tagged δ802- and γ-ENaC subunits in oocytes by serine proteases", "format": "biochemical, human", "details": "10 μg/ml, 45 minutes at room temperature", "experimental": "Figure 3 Activation of δ802-containing ENaC channels by serine proteases. (A) Activation of δ802βγ ENaC expressed in Xenopus oocytes by two-chain urokinase plasminogen activator (tc-uPA). ENaC activity was measured at the membrane potential of -100 mV at defined time points post incubation with 10 μg/ml tc-uPA. n = 9-15. mean ± s.e.m. * P<0.05 vs data at the zero minute (min). (B) Time course of stimulatory effects of plasmin on δ802βγ-ENaC activity. n=12. * P<0.05. (C) Identification of subunit responsible for plasmin activation. Fold of amiloride-sensitive current (ASI) of ENaC-associated current in the presence of plasmin over that in the absence of plasmin was computed for oocytes expressing δ802+β+γ (δβγ), δ802 alone (δ), δ802+β(δβ), and δ802+γ (δγ). n = 12-15. * P<0.05. (D) Inhibitory effects of α-13 peptide on δ802αβγ- (δαβγ) and αβγ-ENaC activity post treatment of plasmin and aprotinin. Currents (I) at -100 mV were compared in the absence of amiloride (basal, open bar), presence of α-13 peptide (α13, closed bar), and amiloride (amil, grey bar). n=5. * P<0.05 vs basal currents, & P < 0.05 vs those in the presence of α-13 peptide. (E) Fractions of α-13 sensitive currents in cells pre-treated with plasmin and aprotinin. n=8. Control, without pre-treatment. (F) Cleavage of V5-tagged δ802- and γ-ENaC subunits by serine proteases. NI, non-injected oocytes as negative controls for ENaC expression. Oocytes incubated with chymotrypsin (CT, 10 μg/ml), plasmin (PI, 10 μg/ml) for 45 minutes at room temperature. Cells treated with the same volume of saline (‑) were controls for serine proteases."}},
  "data": [
    {"substance": "aprotinin", "values": [
      {"measurement": "effect of pre-treatment on δ802αβγ-ENaC activity", "setting": "δ802αβγ-ENaC", "value": "did not alter the current amplitude significantly"},
      {"measurement": "effect of pre-treatment on αβγ-ENaC activity", "setting": "human αβγ-ENaC", "value": "did not alter the current amplitude significantly"}
    ]},
    {"substance": "chymotrypsin", "values": [
      {"measurement": "cleavage of δ802 subunit", "setting": "[1]", "value": "Neither chymotrypsin nor plasmin nor endogenous furin cleaved the δ802 subunit"}
    ]}
  ]
}
